Reference: article PMC7504348 (Molecules, 2020)
Where two headings read alike, the source gives them in different places.

Key:
[1] = target: T1, acetylcolinesterase from electric eel (Type VI) (Electrophorus electricus, UniProt O42275); experiment: biochemical; conditions: reported with SD; assayed in triplicate; read-out: AChE IC50
T1 construct: purified acetylcolinesterase from electric eel (Type VI); tissue Type VI; host or cells: electric eel
Procedure: The assay was performed in 96-well microtiter plates in the same condition for both chalcones and control substance. 25 µL of 100 mM sodium phosphate buffer pH 8, 25 µL of sample and 25 µL acetylcholinesterase solutions containing 0.54 U/mL were mixed in each well of the plate and allowed to incubate for 15 min at 25 °C. Subsequently, 25 µL of a solution of ATCI (15 mM, dissolved in water) and 125 µL of 3 mM DTNB (5,5’-dithio-bis-nitro benzoic acid) were added. The absorbance at 405 nm was recorded during the first 5 min of the reaction. […] Percentages (%) of AChE inhibitions of tested compounds were calculated from the absorbance values as indicated in Equation (1):% I = [(A0E − A0) − (Ac − A0C)]/(A0E − A0)(1) where I is the percent inhibition of acetylcholinesterase; A0E is the absorbance value of the control blank sample with enzyme; A0 is the absorbance value of blank sample; Ac is the absorbance value of the tested sample; A0C is the absorbance value of blank test sample.
The method was as described earlier.

β-secretase (BACE-1) = target: T2, β-secretase (BACE-1) (Homo sapiens, UniProt P56817); experiment: biochemical; conditions: reported with SD
T2 construct: purchased Sigma–Aldrich
Procedure: β-secretase (BACE-1) Activity Detection Kit (Fluorescent) was purchased from Sigma–Aldrich and used to determine the effect of the synthesized chalcones on β-secretase activity. The assay was carried out according to the manufacturer’s protocol. The enzyme solution (0.3 units/uL, 2 μL) was reacted with the 50 μM of the substrate (7-methoxycumarin- 4-acetyl-(Asn670, Lue671)-amyloid β/A4 precursor protein 770 fragment 667–676-(2,4-dinitrophenyl))Lys-Arg-Arg amide trifluoroacetate salt and sulfated polysaccharide samples (2–5 mg/mL) in a fluorescence assay buffer in different wells. Baseline readings were measure immediately on a Hitachi F-7000 (excitation: 320 nm; emission: 405 nm) fluorescence spectrophotometer and repeated after 2 h incubation at 37 °C. […] The method was as described earlier.

[2] = pIC50 = −logIC50, read-out: BACE-1 pIC50 Observed (converted)

T2 sequence (P56817 46-501): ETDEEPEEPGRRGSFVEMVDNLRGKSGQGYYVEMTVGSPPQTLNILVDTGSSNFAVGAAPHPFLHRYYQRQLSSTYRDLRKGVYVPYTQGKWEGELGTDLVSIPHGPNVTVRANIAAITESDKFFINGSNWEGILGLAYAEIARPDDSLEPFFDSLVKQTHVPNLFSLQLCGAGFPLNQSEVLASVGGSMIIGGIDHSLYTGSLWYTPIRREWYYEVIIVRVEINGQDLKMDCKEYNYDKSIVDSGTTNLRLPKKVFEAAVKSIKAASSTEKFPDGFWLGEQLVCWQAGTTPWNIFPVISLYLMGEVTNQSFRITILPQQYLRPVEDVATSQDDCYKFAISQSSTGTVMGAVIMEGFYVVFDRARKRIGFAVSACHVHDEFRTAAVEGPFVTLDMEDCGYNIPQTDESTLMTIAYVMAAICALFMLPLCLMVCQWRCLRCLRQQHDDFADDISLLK
T1 sequence (O42275 24-633): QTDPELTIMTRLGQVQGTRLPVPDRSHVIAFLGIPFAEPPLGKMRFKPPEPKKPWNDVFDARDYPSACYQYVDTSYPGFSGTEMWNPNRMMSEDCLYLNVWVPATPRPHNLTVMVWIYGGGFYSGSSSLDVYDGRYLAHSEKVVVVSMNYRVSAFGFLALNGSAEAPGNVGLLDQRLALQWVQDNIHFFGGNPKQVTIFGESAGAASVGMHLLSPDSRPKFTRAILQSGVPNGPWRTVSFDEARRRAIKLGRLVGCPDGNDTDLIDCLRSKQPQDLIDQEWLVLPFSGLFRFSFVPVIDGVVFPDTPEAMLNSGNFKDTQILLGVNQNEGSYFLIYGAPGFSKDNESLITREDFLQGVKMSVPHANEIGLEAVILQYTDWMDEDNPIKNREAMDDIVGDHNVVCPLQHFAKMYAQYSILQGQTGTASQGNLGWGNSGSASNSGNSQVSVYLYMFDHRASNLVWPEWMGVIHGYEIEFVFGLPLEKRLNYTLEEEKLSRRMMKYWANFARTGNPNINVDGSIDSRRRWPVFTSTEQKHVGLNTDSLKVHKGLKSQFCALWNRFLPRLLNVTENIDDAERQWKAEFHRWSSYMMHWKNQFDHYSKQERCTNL

| SMILES | IC50 [1] | IC50 (β-secretase (BACE-1); [2]) | IC50 (β-secretase (BACE-1); read-out: BACE-1 IC50) |
| --- | --- | --- | --- |
| CN(C)CCCN1c2ccccc2Sc2ccc(C(=O)/C=C/c3ccccc3)cc21 [AC1, (E)-1-(10-(3-(dimethylamino)propyl)-10H-phenothiazin-2-yl)-3-phenylprop-2-en-1-one] | 33.9 ± 1.45 µM | 6.31 µM | 6.34 ± 0.46 µM |
| COc1cccc(/C=C/C(=O)c2ccc3c(c2)N(CCCN(C)C)c2ccccc2S3)c1 [AC2, (E)-1-(10-(3-(dimethylamino)propyl)-10H-phenothiazin-2-yl)-3-(3-methoxyphenyl)prop-2-en-1-one] | 30.9 ± 2.1 µM | 3.02 µM | 3 µM |
| COc1ccc(/C=C/C(=O)c2ccc3c(c2)N(CCCN(C)C)c2ccccc2S3)cc1 [AC3, (E)-1-(10-(3-(dimethylamino)propyl)-10H-phenothiazin-2-yl)-3-(4-methoxyphenyl)prop-2-en-1-one] | 11.5 ± 1.29 µM | 4.47 µM | 4.48 ± 0.4 µM |
| COc1cc(/C=C/C(=O)c2ccc3c(c2)N(CCCN(C)C)c2ccccc2S3)cc(OC)c1OC [AC4, (E)-1-(10-(3-(dimethylamino)propyl)-10H-phenothiazin-2-yl)-3-(3,4,5-trimethoxyphenyl)prop-2-en-1-one] | 3.63 ± 0.61 µM | 0.155 µM | 0.16 ± 0.03 µM |
| CN(C)CCCN1c2ccccc2Sc2ccc(C(=O)/C=C/c3ccc(Cl)cc3)cc21 [AC5] | 60.3 ± 1.84 µM | 1.23 µM | 1.24 ± 0.12 µM |
| CN(C)CCCN1c2ccccc2Sc2ccc(C(=O)/C=C/c3ccc(Cl)cc3Cl)cc21 [AC6] | 20 ± 1.57 µM | 0.501 µM | 0.5 µM |
| CN(C)CCCN1c2ccccc2Sc2ccc(C(=O)/C=C/c3c(F)cccc3Cl)cc21 [AC7] | 40.7 ± 2.48 µM | 0.447 µM | 0.45 ± 0.04 µM |
| CN(C)CCCN1c2ccccc2Sc2ccc(C(=O)/C=C/c3ccccc3Cl)cc21 [AC8] | 15.8 ± 1.08 µM | 2.95 µM | 2.97 ± 0.05 µM |
| CN(C)CCCN1c2ccccc2Sc2ccc(C(=O)/C=C/c3ccc(F)cc3)cc21 [AC9, (E)-1-(10-(3-(dimethylamino)propyl)-10H-phenothiazin-2-yl)-3-(4-fluorophenyl)prop-2-en-1-one] | 25.1 ± 0.83 µM | 3.72 µM | 3.72 ± 0.21 µM |
| CN(C)CCCN1c2ccccc2Sc2ccc(C(=O)/C=C/c3cccc(Br)c3)cc21 [AC10] | 24.6 ± 1.09 µM | 2 µM | 1.99 ± 0.21 µM |
| CN(C)CCCN1c2ccccc2Sc2ccc(C(=O)/C=C/c3ccccc3C(F)(F)F)cc21 [AC11] | 186 ± 4.52 µM | 0.398 µM | 0.4 µM |
| CN(C)CCCN1c2ccccc2Sc2ccc(C(=O)/C=C/c3ccc(N(C)C)cc3)cc21 [AC12] | 1.1 ± 0.24 µM | 0.347 µM | 0.35 ± 0.04 µM |
| CN(C)CCCN1c2ccccc2Sc2ccc(C(=O)/C=C/c3ccc(OCc4ccccc4)cc3)cc21 [AC13] | 11.8 ± 0.63 µM | 3.02 µM | 3.03 ± 0.21 µM |
